# According to US20150105252A1, “SUBSTITUTED PYRAZOLES AS HERBICIDES” (E I DU PONT DE NEMOURS AND COMPANY, priority 2013, published 2015):
# Key:
# ducksalad = assay: Test B flood; type: in vivo, Heteranthera limosa; settings: 250 g ai/ha, visual rating on 0 to 100 scale (0 no effect, 100 complete control), 13 to 15 days
# How it was run: (§1)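 Two-leaf-stage plants, pots flooded (3 cm above soil) and treated through the water, which stayed at that depth. After 13–15 days in greenhouse conditions, visual assessment versus controls: 0 is no effect, 100 complete control, dash means no result.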
# barnyardgrass [1] = assay: Test C preemergence; type: in vivo, Echinochloa crus-galli; settings: preemergence
# How it was run: (§2)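 Visual rating, 0–100 scale (0 no effect, 100 complete control), vs untreated controls after 13–15 d greenhouse. Pre: seeds in loam/sand, treated at sowing. Post: plants in peat-based mix, 1- to 4-leaf (2–18 cm). Solvent + surfactant formulation, non-phytotoxic.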
# barnyardgrass [2] = assay: Test A preemergence; type: in vivo, Echinochloa crus-galli; settings: preemergence
# How it was run: (§3)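 Pre- and postemergence greenhouse test; loam+sand; cpd in non-phytotox. solvent/surfactant; post at 1–2 leaf, 2–10 cm; visual score ~10 d, 0 = none, 100 = complete control.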
# galium [3] = assay: Test C preemergence; type: in vivo, Galium aparine
# How it was run: as §2
# velvetleaf = assay: Test A preemergence; type: in vivo, Abutilon theophrasti; settings: preemergence, 125 g ai/ha, visual injury approx. 10 days after treatment
# How it was run: as §3
# corn [4] = assay: Test C preemergence; type: in vivo, Zea mays
# How it was run: as §2
# corn [5] = assay: Test A preemergence; type: in vivo, Zea mays; settings: preemergence
# How it was run: as §3
# wheat = assay: Test A postemergence; type: in vivo, Triticum aestivum; settings: Postemergence
# How it was run: as §3
# oilseed rape = assay: Test C postemergence; type: in vivo, Brassica napus; settings: postemergence
# How it was run: as §2
# galium [6] = assay: Test C postemergence; type: in vivo, Galium aparine
# How it was run: as §2
# morningglory = assay: Test C preemergence; type: in vivo, Ipomoea coccinea
# How it was run: as §2
# pigweed = assay: Test A preemergence; type: in vivo, Amaranthus retroflexus; settings: preemergence, 125 g ai/ha, visual injury approx. 10 days after treatment
# How it was run: as §3
# foxtail, giant = assay: Test A preemergence; type: in vivo, Setaria faberii; settings: preemergence
# How it was run: as §3
# blackgrass = assay: Test C postemergence; type: in vivo, Alopecurus myosuroides
# How it was run: as §2
# sedge, umbrella = assay: Test B flood; type: in vivo, Cyperus difformis; settings: 250 g ai/ha, visual rating on 0 to 100 scale (0 no effect, 100 complete control), 13 to 15 days
# How it was run: as §1
# [7] = 125 g ai/ha, visual injury approx. 10 days after treatment
# [8] = 500 g ai/ha, visual injury after approx. 10 days, 0 to 100 scale (0 no effect, 100 complete control)
# [9] = Preemergence, rate head not shown (block before 16 g ai/ha), scale 0 to 100
# [10] = preemergence, 62 g ai/ha, scale 0 to 100 (0 no effect, 100 complete control), 13 to 15 days
# [11] = preemergence, 125 g ai/ha, 13 to 15 days, scale 0 to 100, 0 = no effect, 100 = complete control
# [12] = preemergence, 250 g ai/ha, scale 0 to 100, 0 is no effect, 100 is complete control
# [13] = Postemergence, 31 g ai/ha, visually evaluated after 13 to 15 days
# [14] = postemergence, 62 g ai/ha, scale 0 to 100
# [15] = postemergence, 250 g ai/ha, scale 0 to 100 (0 no effect, 100 complete control)
# [16] = postemergence, 125 g ai/ha, scale 0 to 100, 0 no effect, 100 complete control
smiles,measurement,setting,value
CCc1cc(C(=O)NCC(F)(F)F)nn1Cc1ccnc(Br)c1 [Compound 224],"Plant response rating, Ducksalad",ducksalad,75
same,Barnyardgrass plant response rating,"barnyardgrass [1]; 31 g ai/ha, visual rating, scale 0 to 100 (0 no effect, 100 complete control), 13 to 15 days",25
same,Barnyardgrass plant response rating,"barnyardgrass [1]; 62 g ai/ha, scale 0 to 100 (0 no effect, 100 complete control), 13 to 15 days",40
same,"Plant response rating, Barnyardgrass","barnyardgrass [1]; 125 g ai/ha, 13 to 15 days, scale 0 to 100, 0 = no effect, 100 = complete control",100
same,Barnyardgrass plant response rating,"barnyardgrass [1]; 250 g ai/ha, scale 0 to 100, 0 is no effect, 100 is complete control",100
same,"Barnyardgrass plant response rating (0 to 100 scale, 0 is no effect, 100 is complete control)",barnyardgrass [2]; [7],90
same,Barnyardgrass plant response rating,barnyardgrass [2]; [8],100
same,"Plant response rating, Galium",galium [3]; [9],80
same,Galium plant response rating,galium [3]; [10],80
same,"Plant response rating, Galium",galium [3]; [11],100
same,Galium plant response rating,galium [3]; [12],90
same,Velvetleaf plant response rating (0 to 100 scale),velvetleaf,100
same,"Plant response rating, Corn","corn [4]; Preemergence, rate head not shown (block before 16 g ai/ha), scale 0 to 100, 100 is complete control",0
same,Corn plant response rating,corn [4]; [10],5
same,"Plant response rating, Corn",corn [4]; [11],15
same,Corn plant response rating,corn [4]; [12],60
same,Corn plant response rating (0 to 100 scale),corn [5]; [7],30
same,Corn plant response rating,corn [5]; [8],90
same,Wheat plant response rating,"wheat; 125 g ai/ha, 0 to 100 scale, 0 no effect, 100 complete control",30
same,Wheat plant response rating,"wheat; 500 g ai/ha, 0 to 100 scale (0 no effect, 100 complete control)",90
same,Oilseed Rape plant response rating,"oilseed rape; 62 g ai/ha, scale 0 to 100",50
same,"Plant response rating, Oilseed Rape","oilseed rape; 250 g ai/ha, scale 0 to 100 (0 no effect, 100 complete control)",55
same,"Plant response rating, Oilseed Rape","oilseed rape; 125 g ai/ha, scale 0 to 100, 0 no effect, 100 complete control",50
same,"Plant response rating (scale of 0 to 100 where 0 is no effect and 100 is complete control), Galium",galium [6]; [13],50
same,Galium plant response rating,galium [6]; [14],55
same,"Plant response rating, Galium",galium [6]; [15],90
same,"Plant response rating, Galium",galium [6]; [16],40
same,"Plant response rating, Morningglory",morningglory; [9],5
same,Morningglory plant response rating,morningglory; [10],10
same,"Plant response rating, Morningglory",morningglory; [11],40
same,Morningglory plant response rating,morningglory; [12],100
same,Pigweed plant response rating (0 to 100 scale),pigweed,100
same,"Foxtail, Giant plant response rating (0 to 100 scale)","foxtail, giant; [7]",100
same,"Foxtail, Giant plant response rating","foxtail, giant; [8]",100
same,"Plant response rating (scale of 0 to 100 where 0 is no effect and 100 is complete control), Blackgrass",blackgrass; [13],5
same,Blackgrass plant response rating,blackgrass; [14],5
same,"Plant response rating, Blackgrass",blackgrass; [15],20
same,"Plant response rating, Blackgrass",blackgrass; [16],5
same,"Plant response rating, Sedge, Umbrella","sedge, umbrella",90
